ChEMBL document CHEMBL1135134, “Novel phthalimide derivatives, designed as leukotriene D(4) receptor antagonists” (Bioorg Med Chem Lett, 2002)

Key:
Cavia porcellus [1] = species on record: Cavia porcellus; assay: Inhibitory contractile effect of compound in guinea-pig tracheal strips induced by LTD4 (100 nM) (% contraction, obtained in the vehicle presence 100.0%); format: functional, Trachea
Cavia porcellus [2] = species on record: Cavia porcellus; assay: Inhibitory contractile effect of compound in guinea-pig tracheal strips induced by LTD4 (100 nM) (% inhibition obtained by comparison with control group); format: functional, Trachea
Cavia porcellus [3] = species on record: Cavia porcellus; assay: 50% inhibitory concentration on the LTD4 (100 nM) induced contraction of guinea-pig tracheal strip bioassay; format: functional; details: Trachea
Cavia porcellus [4] = species on record: Cavia porcellus; assay: Maximum effect on the LTD4 (100 nM) induced contraction of guinea-pig tracheal strips bioassay; format: functional; details: Trachea

O=C(O)CCCC(=O)Oc1ccc(CCN2C(=O)c3ccccc3C2=O)cc1
Contraction (Cavia porcellus [1]): 73.9%
Inhibition (Cavia porcellus [2]): 26.1%

COc1cc(C(=O)NS(=O)(=O)c2ccccc2C)ccc1Cc1cn(C)c2ccc(NC(=O)OC3CCCC3)cc12 [ZAFIRLUKAST]
IC50 (Cavia porcellus [3]): 0.00103 µM

CC(Oc1ccc(CCN2C(=O)c3ccccc3C2=O)cc1)C(=O)O (configuration not stated)
Contraction (Cavia porcellus [1]): 91.4%
Inhibition (Cavia porcellus [2]): 8.6%

O=C(O)c1ccc(COc2ccc(CCN3C(=O)c4ccccc4C3=O)cc2)cc1
Contraction (Cavia porcellus [1]): 93.7%
Inhibition (Cavia porcellus [2]): 6.3%

O=C(O)CCCOc1ccc(CCN2C(=O)c3ccccc3C2=O)cc1
Contraction (Cavia porcellus [1]): 80.3%
Inhibition (Cavia porcellus [2]): 19.7%

O=C1c2ccccc2C(=O)N1CCc1ccc(OCCCc2nn[nH]n2)cc1
Contraction (Cavia porcellus [1]): 52.4%
Inhibition (Cavia porcellus [2]): 47.6%
IC50 (Cavia porcellus [3]): 31.2 µM
Emax (Cavia porcellus [4]): 100%

O=C(O)COc1ccc(CCN2C(=O)c3ccccc3C2=O)cc1
Contraction (Cavia porcellus [1]): 101.5%
Inhibition (Cavia porcellus [2]): -1.5%

O=C(O)CCCCOc1ccc(CCN2C(=O)c3ccccc3C2=O)cc1
Contraction (Cavia porcellus [1]): 97.6%
Inhibition (Cavia porcellus [2]): 2.4%
